# Test results reported in US6676946B2 (priority 1997, dated 2004).
# Entries after “also recorded” stand apart in the source; their conditions may differ.
# What was measured:
# MLS128 mAb = type: binding, mouse
# [1] = test system: human Jurkat tumor cell line; settings: in vivo
# [2] = test system: Tn3G6K(Biot)G glycopeptide; parameters: species or system BALB/c mice; settings: mouse, in vivo
# [3] = test system: T cell hybridoma 45G10 specific for PV; type: cell-based
# [4] = test system: MLS 128 (IgG) anti-Tn monoclonal antibody; type: binding, mouse
# STTG6K(Biot)G peptide = test system: STTG6K(Biot)G peptide; parameters: species or system BALB/c mice; settings: mouse, in vivo
# [5] = test system: T cell hybridomas 45G10 (specific for 103-115 poliovirus peptide); type: cell-based
# Tn antigen (BT-TT1) = test system: Tn antigen (BT-TT1); parameters: species or system BALB/c mice; settings: mouse, in vivo
# lymph node (LN) cells = test system: lymph node (LN) cells; parameters: species or system BALB/c mice; settings: mouse, in vivo, sc
Substance,inhibition of MLS128 binding to Tn3G6K(Biot)G (MLS128 mAb),anti-Tn IgG antibodies [2],stimulation of the 45G10 T cell hybrid [3],"recognition of the Tn motif by the MLS 128 mAb, direct ELISA [4]",sera binding to unglycosylated STTG6K(Biot)G peptide (STTG6K(Biot)G peptide),further results
(S*T*T*G)2KLFAVWKITYKDT [Tn6-PV],significant enhancement of the antigenicity,induced anti-Tn IgG antibodies,stimulate,efficiently recognized,No sera binding was observed,binding of sera to Jurkat cells [1]: bound this human cell line; recognition of Jurkat cells / antibody production relative to Tn3-PV [1]: better; also recorded: significant benefit; anti-Tn IgM antibodies [2]: detected; increase of antigenicity of the T cell epitope compared to unglycosylated PV peptide [3]: ~100 fold
"KLFAVWKITYKDT [PV, reference compound]",–,no Tn specific antibodies were detected,stimulate,are not,No sera binding was observed,recognition by PV-specific T-cell hybridoma [5]: recognize; induction of anti-Tn antibodies (Tn antigen (BT-TT1)): not; proliferative T response specific for the T epitope (lymph node (LN) cells): induce in vivo a proliferative T response
S*T*T*QYIKANSKIGITEL [Tn3-TT],only slightly affected,–,–,efficiently recognized,–,–
"STTGGGGGGKG [STTG6KG, reference compound]",–,–,–,–,–,competition with a-OSM for MLS 128 binding (MLS128 mAb): does not
αGalNac-Ser [B],–,–,–,–,–,stimulation of IL-2 production by the T hybridoma [5]: do not stimulate
